Laboratory results from a melting point compilation (Tetko et al.; mined from patent text by program, amines drawn as free bases though some values may be those of a salt).

Point of comparison: `Cn1ncnc1COc1nn2c(-c3ccccc3F)nncc2c1-c1ccccc1F`, melting point 169 °C. Against it:
- O=C(NC(Cc1ccc(OCc2ccccc2)cc1)C(=O)O)c1cn2cc(-c3ccc(Cl)cc3)ccc2n1 (configuration not stated) — higher, 270 to 271 °C
- Cc1ccc(C(=O)Nc2ccc(CN3CCOCC3)c(C(F)(F)F)c2)cc1-c1ccc2cnncc2c1 — lower, 147 to 151 °C
- CC(C)C[C@H](NC(=O)OCc1ccccc1)C(=O)N[C@@H](Cc1ccccc1)C(=O)CSCc1ccccn1 — lower, 82 to 87 °C
- C=C[C@@H]1CCC(=O)N1C(=O)[C@@H](C)Sc1cc(C(C)(C)C)c(O)c(C(C)(C)C)c1 — lower, 105 to 106 °C
- C#CCOc1ccc(-c2ccccc2NC(=O)C(NS(=O)(=O)CC)C(C)C)cc1OC (configuration not stated) — lower, 97 to 103 °C
- CC(C)OC(=O)c1ccc2c(c1)ncn2-c1cccc(N2CCN(C)CC2)c1 — higher, 173 to 174 °C
- CC1(CC(=O)O)OCCc2c1[nH]c1ccc(O)cc21 (configuration not stated) — higher, 170 to 171 °C
- CCOC(=O)c1cnc2c(SCc3ccccc3)cccn2c1=O — lower, 165 to 167 °C
- CC(C)c1cc(CCC(=O)O)cc(C(C)C)c1O — lower, 106 °C
- Cc1cc(C)c2c(c1)nc(N(CCN1CCOCC1)C1CCNCC1)n2Cc1nc(C)ccc1O — higher, 226 °C
- Cc1c(C2=CCC(c3ccccc3)(N(C)C)CC2)[nH]c2ccc(C#N)cc12 (configuration not stated) — higher, 180 to 185 °C
- Cc1c(CC(C)(C)C(=O)O)n(Cc2ccc(Cl)cc2)c2ccc(OCc3ccc4ccccc4n3)cc12 — higher, 215 to 217 °C
- COC(=O)c1ccc(OCC2CN(c3ccc(Cl)cc3)C(=O)O2)cc1 (configuration not stated) — lower, 146 to 148 °C
- O=C(O)C(=O)c1ccc(OCCCCCCCCCCCCOc2ccccc2)cc1 — lower, 98 to 100 °C
- COCC1CN(c2ccc3ccc(O)cc3c2)C(=O)O1 (configuration not stated) — lower, 155 to 157 °C
- CC(C)(C)OC(=O)c1ccc([N+](=O)[O-])c(OCCOc2cc(C(=O)OC(C)(C)C)ccc2[N+](=O)[O-])c1 — lower, 155 to 157 °C
- COc1cc(C(C)=O)c(OC)cc1C — lower, 75 to 77 °C
- COC(=O)c1cc(Br)c2c(c1Cl)OC(c1ccccc1)(c1ccccc1)O2 — lower, 137 to 138 °C
- O=C1NC(=O)C(=Cc2ccc(N3CCC(NC[C@H](O)COc4cccc5[nH]c(=O)[nH]c45)CC3)c(F)c2)S1 — lower, 162 to 164 °C
- OC1CSC(Oc2cnc(-c3cncnc3)c(F)c2)C(O)C1O (configuration not stated) — higher, 192 °C
- COCc1c[nH]c2c([N+](=O)[O-])ccc(C)c2c1=O — higher, 210 to 213 °C
- Cc1cccc(Nc2ccc(-c3ccccc3)cc2)c1 — lower, 95 °C
- CCCCc1nc(Cl)c(C(=O)O)n1Cc1ccc2oc(-c3ccccc3C(=O)O)c(Br)c2c1 — lower, 148 to 152 °C
- C[Si](C)(C)O[C@H]1C=C(S(=O)(=O)c2ccccc2)C=CCC1 — lower, 61.9 to 63.8 °C
- O=C1NC(=O)C2(c3cc(Oc4ccc([N+](=O)[O-])cc4)c(Cl)cc3F)CCCCC12 (configuration not stated) — lower, 126 °C
- CCOC(=O)c1cc(-c2ccc(Cl)cc2)nc2ccnn12 — lower, 160 to 161 °C
- O=C(O)c1ccc2c(c1)CCCC2NC(=O)c1cccc(Oc2ccccc2)c1 (configuration not stated) — lower, 155 to 160 °C
- CC(C)(C)OC(=O)N1CCC[C@H]1C(=O)N1CCN(C(=O)c2ccc(C#N)cc2)CC1 — lower, 50 °C
- CCCCCCC(C)(C)c1cc(O)c2c(c1)oc(=O)c1ccc(OC)cc12 — lower, 149 to 151 °C
- CC(O)=C(C#N)C(=O)Nc1ccc(Cl)cc1Cl — lower, 143 to 144 °C
- N#CCSC(=O)c1ccc(C#N)cc1 — lower, 132 to 134 °C
- CC(C)(C)OC(=O)N1CCc2ccc(Nc3nc4c(-c5cc(C(F)(F)F)ccc5Cl)cccn4n3)cc2CC1 — lower, 88 to 89 °C
- C=CCCCCCCCCCN1C(=O)c2ccccc2C1=O — lower, 25 to 30 °C
- O=C(O)c1c(Br)nc(-c2ccccc2)n1Cc1cc2c(cc1Cl)OCO2 — higher, 215 °C
- CCOC(=O)CC(=O)c1cc2cc(F)c(F)cc2nc1Cl — lower, 107 °C
- CCC#CCOc1cc2c(cc1/C=C/c1ccc(C(=O)O)cc1)C(C)(C)CCC2(C)C — lower, 144 to 145 °C
